Measurements: patent US20220220123A1, “AMORPHOUS AND CRYSTALLINE FORMS OF RELUGOLIX” (DR. REDDY'S LABORATORIES LIMITED, priority 2019, published 2022)

Test: storage stability of solid forms of relugolix
Format: physicochemical

SMILES	stability (found stable; in words) (no storage conditions or duration printed)	stability of the crystalline form on storage (2-8° C.)	stability of the crystalline form on storage (25° C. and 60% RH (relative humidity))	stability of the crystalline form on storage (40° C. and 75% RH (relative humidity))
CONC(=O)Nc1ccc(-c2sc3c(c2CN(C)C)c(=O)n(-c2ccc(OC)nn2)c(=O)n3Cc2c(F)cccc2F)cc1 [amorphous relugolix]	stable			
CONC(=O)Nc1ccc(-c2sc3c(c2CN(C)C)c(=O)n(-c2ccc(OC)nn2)c(=O)n3Cc2c(F)cccc2F)cc1 [crystalline form R1]		stable for at least three months	stable for at least three months	stable for at least three months
